{"source": "patent US8461082B2", "about": "“Herbicidal composition and method for removing unwanted foliage” (priority 2006, dated 2013)", "key": {"[1]": {"assay": "Examples 4-6 mixing in 1000 L commercial spray tank, dissolution and pH", "format": "physicochemical", "text": "A commercial “Silvan” Trailing Boom Spray fitted with a 1000 L tank was used for this experiment. The boom was 10 m wide.\nThe glyphosate material used was glyphosate acid (purity 95%) with a particle size where 95% can pass through a 1.2 mm sieve.\nThe spray tank was filled with 900 L of water. The recirculation or agitation system was driven by a power take off (“PTO”) from the tractor. The recirculation system consisted of a wet boom, submerged at the base of the tank with outlets to one side of the tank's midline. […] This is acceptable agitation by commercial spray boom standards.\nWith the PTO operating, a blend made from 0.979 kg of the surfactant Empigen BB and 1.57 kg of the monoethanolamine was poured into the tank and allowed to disperse for one minute.\n4.26 kg of glyphosate acid was then tipped into the water.\nA commercial “Silvan” brand Trailing Boom Spray fitted with a 1000 L tank was use for this experiment. The boom was 10 m wide.\nGlyphosate acid (purity 95%) with a particle size where 95% can pass through a 0.5 mm sieve.\nThe spray tank was filled with 900 L of water. The recirculation or agitation system was driven by a PTO from the tractor. The recirculation system consisted of a wet boom at the base of the tank with outlets to one side of the tank's midline. […] This is adequate agitation by commercial spray boom standards.\n4.26 kg of the milled glyphosate acid was tipped into the water.\nA commercial “Silvan” Trailing Boom Spray fitted with a 1000 L tank was use for this experiment. The boom was 10 m wide.\nGlyphosate acid (purity 95%) with a particle size where 95% can pass through a 1.2 mm sieve but not through a 0.5 mm sieve.\nA blend made from 0.979 kg of the surfactant Empigen BB, a cocobetaine surfactant, and 1.57 kg of the monoethanolamine (MEA) was poured into the tank and allowed to disperse for one minute. A sample of water was collected and analysed for pH.\nA plastic mesh insert with holes of 3-4 mm diameter was fitted into the mouth of the tank and 4.26 kg of glyphosate acid was tipped into the insert. […]\nA sample of water was then taken and analysed for pH."}, "[2]": {"assay": "Dissolution of glyphosate acid on stirring into diluted Alkali Surfactant Blend in 20 L buckets", "format": "physicochemical", "details": "bucket, at the higher concentrations", "procedure": "Approximately 13 L of water was added to each of five 20 litre (“L”) plastic buckets (Table 1). Pack 1 was made by taking 37.5 parts monoethanolamine (“MEA”) and 25.3 parts of a cocobetaine surfactant called Empigen BB from Huntsman Chemical Company Australia. Pack 1 was also called the Alkaline-Surfactant Blend in this and later examples.\nGlyphosate acid technical material with a purity of 95% and a particle size smaller than 1 mm (Pack 2) was then added to the buckets at the rates given in Table 1 and stirred with a plastic paddle until all the acid disappeared. This took 3-5 minutes at the higher concentrations.\nApproximately 13 L of water was added to seven 20 L plastic buckets (Table 5). A blend of 37.5 parts MEA and 25.3 parts of the cocobetain surfactant Empigen BB was made to form the Alkali Surfactant Blend (Pack 1). Glyphosate acid (Pack 2) with a purity of 95% was then added to the buckets at the rates given in Table 5 and stirred with a plastic paddle until all the acid disappeared. This took 3-5 minutes at the higher concentrations.\nApproximately 13 L of water was added to seven 20 L plastic buckets (Table 22). The Alkali Surfactant Blend of monoethanolamine and the cocamidopropyl betaine (Pack 1) was then added to the water at the rates given in the Table. […]"}}}
{"smiles": "O=C(O)CNCP(=O)(O)O", "note": "[glyphosate acid, N-phosphonomethyl glycine]", "values": [{"measurement": "dissolution of glyphosate acid in spray tank", "setting": "[1]; Example 4: 4.26 kg acid (95% passes 1.2 mm sieve) tipped into 900 L water with MEA/Empigen BB blend, agitated, no mesh insert", "result": "almost all disappeared over the next 5 minutes"}, {"measurement": "time for glyphosate acid to disappear in spray tank", "setting": "[1]; Example 5: 4.26 kg milled acid (95% passes 0.5 mm sieve) tipped into 900 L water with MEA/Empigen BB blend, agitated, no mesh insert", "result": "≤ 10", "unit": "min"}, {"measurement": "undissolved acid in spray tank after washing through mesh", "setting": "[1]; Example 6: 4.26 kg acid washed through 3-4 mm plastic mesh insert over 1-2 minutes into 900 L water with MEA/Empigen BB blend", "result": "no evidence of undissolved acid"}, {"measurement": "time stirred until all the acid disappeared", "setting": "[2]; about 13 L water with MEA/Empigen BB blend", "result": "3 to 5", "unit": "min"}, {"measurement": "time stirred until all the acid disappeared", "setting": "[2]; about 13 L water with MEA/cocamidopropyl betaine blend", "result": "approximately 3 minutes"}]}
